Experimental data as given in PMC11697029 (Nature Communications, 2025).

molecular target: T1, RmlT (Listeria monocytogenes, UniProt Q8Y838); assay: isothermal titration calorimetry; type: binding
T1 sequence (Q8Y838 1-623): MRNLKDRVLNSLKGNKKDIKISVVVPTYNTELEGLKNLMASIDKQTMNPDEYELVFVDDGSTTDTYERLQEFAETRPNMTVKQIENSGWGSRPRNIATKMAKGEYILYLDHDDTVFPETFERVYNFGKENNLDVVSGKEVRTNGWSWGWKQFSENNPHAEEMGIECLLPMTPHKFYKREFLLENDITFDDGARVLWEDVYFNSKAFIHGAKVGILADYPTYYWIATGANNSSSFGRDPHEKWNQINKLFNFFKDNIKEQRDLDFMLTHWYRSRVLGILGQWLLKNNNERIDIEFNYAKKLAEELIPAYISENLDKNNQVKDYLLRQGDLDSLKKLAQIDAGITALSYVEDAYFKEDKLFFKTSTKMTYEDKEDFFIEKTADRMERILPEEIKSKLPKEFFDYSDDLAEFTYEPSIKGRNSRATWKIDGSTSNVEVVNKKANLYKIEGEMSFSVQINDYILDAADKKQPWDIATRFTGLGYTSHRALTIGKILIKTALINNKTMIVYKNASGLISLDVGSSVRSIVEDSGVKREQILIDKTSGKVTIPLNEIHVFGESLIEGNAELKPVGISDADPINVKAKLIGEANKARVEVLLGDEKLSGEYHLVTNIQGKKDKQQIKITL

Row | Compound | Kd
1 | Cc1cn([C@H]2C[C@H](O)[C@@H](COP(=O)(O)OP(=O)(O)O[C@H]3O[C@H](CO)[C@@H](O)[C@H](O)[C@H]3O)O2)c(=O)[nH]c1=O [TDP-glucose] | ~10 µM
2 | Cc1cn([C@H]2C[C@H](O)[C@@H](COP(=O)(O)OP(=O)(O)O[C@H]3O[C@@H](C)[C@H](O)[C@@H](O)[C@H]3O)O2)c(=O)[nH]c1=O [TDP-rhamnose] | ~13 µM
3 | Cc1cn([C@H]2C[C@H](O)[C@@H](COP(=O)(O)OP(=O)(O)O)O2)c(=O)[nH]c1=O [TDP] | ~50 µM
